Results published in patent US11643428B2, “Therapeutic drug for neurodegenerative disease and application thereof” (SHANGHAI PHARMACEUTICALS HOLDING CO., LTD., priority 2018, dated 2023).

How the values were obtained:
[1] = tested on: APP/PS1 transgenic mice (AD mice); test: Morris water maze test; format: in vivo, mouse; settings: 10 mg/kg intragastrically daily, 90 days, vs model group
Experimental: Twenty 5-6 months aged, male APP/PS1 transgenic mice (AD mice) were selected, and were divided into a model group and a polysaccharide administration group randomly by random number table method. PL201 was intragastrically administered daily (10 mg/kg mouse body weight), meanwhile, 10 non-transgenic mice were used as a negative control group (without PL201 administration). After 90 days of consecutive administration, Morris water maze behavior test was used to detect the effects of PL201 on learning and cognitive function of APP/PS1 mice.
Classic Morris water maze test procedure was used in the test, which includes two parts: i.e., the place navigation task and the spatial probe task. The test lasted for 7 days, and the spatial probe task was added at Day 4 and Day 7.
It can be seen from the test results in FIG. 1 that the escape latency of all the three groups of animals after 3 days of training was shortened in the place navigation task, illustrating that mice in each group can successfully complete the spatial learning task of the water maze. The escape latency was used as a test indicator.

AD mice [2] = test: Neurogenesis in vivo, BrdU/NeuN staining of hippocampus; design: species or system mouse; settings: 10 mg/kg intragastrically once daily, 90 days, vs control group
Experimental: (§1) The inventors conducted PL201 administration experiments on AD mice (5-6 months aged AD mice were selected). Each mouse was intragastrically administrated 100 μl PL201, and the dosage was 10 mg/kg mouse body weight. Moreover, mice in the control group were administrated 100 μl water once daily for 90 days, and from Day 60 were intraperitoneally injected with 5-bromo-2′-deoxyuridine (BrdU) of 50 mg/kg mouse body weight once daily for 7 days. After 90 days of administration, the mice were perfused with PFA after anesthesia, and the whole brain was taken for further experiments.
For the obtained whole brain, a mature neuron marker NeuN in the hippocampus of mice was detected: The brain of mouse which had been perfused with PFA was then fixed in 4% PFA for 24 hours, and then kept for 72 hours in 30% sucrose for cryoprotection. After the treatment was completed, the region of cerebellum was removed, and the olfactory bulb was placed upright on the filter paper and frozen at −80° C. for at least 24 hours. The frozen sectioning was performed vertically and longitudinally with a thickness of 30 μm. A total of 8×9×=72 slices (2.16 mm) including DG portion were cut and arranged in slicing order. One slice was taken from every 8 slices and combined into a group of brain slices for staining. […] The number of single or double positive cells was analyzed by Image Pro Plus software. […]

AD mice [3] = test: Aβ plaques in brain, thioflavin S staining; format: in vivo, mouse; settings: 10 mg/kg intragastrically, 90 days, vs control group
Experimental: as §1
The inventors performed frozen sectioning coronally with a thickness of 30 μm on the whole brain sample of AD mice after administration in example 2, and the slices were stained with thioflavin S and DAPI. The stained brain slices were then photographed with Olympus FV100i or Leica SP-8.

Human neural stem cells = test: Mitochondrial membrane potential, JC-1 staining; format: cell-based; settings: Aβ-treated cells
Experimental: Mitochondrial membrane potential is the main parameter of mitochondrial function, and mitochondrial dysfunction is a prominent feature of AD brain. In this example, the inventors have explored whether PL201 has the effect of improving mitochondrial function by detecting the level of cell mitochondrial membrane potential of human neural stem cells.
Mitochondria was stained with JC-1 for 20 minutes and washed with washing buffer, then immunofluorescence analysis was performed.

MPTP mice model = test: TH immunohistochemistry of substantia nigra and striatum, MPTP model; format: in vivo, mouse; settings: PL201+MPTP vs NS+MPTP group, Day 7 after MPTP modeling
Experimental: The mice were randomly divided into 4 groups: a group in which the mice was administrated with normal saline (NS), a MPTP model group in which the mice was intragastrical administrated with normal saline (NS+MPTP), a group in which the mice was intragastrical administrated with 50 mg of compound PL201 (PL201), and a MPTP model group in which the mice was intragastrical administrated with compound PL201 (PL201+MPTP).
11 animals were set in the group in which the mice was administrated with normal saline (NS), 14 animals were set in the MPTP model group in which the mice was intragastrical administrated with normal saline (NS+MPTP), 4 animals were set in the group in which the mice was intragastrically administrated with 50 mg of compound PL201 (PL201), 15 animals were set in the MPTP model group in which the mice was intragastrically administrated with the compound PL201 (PL201+MPTP).
The administration started on the day of animal grouping: mice in the NS and the NS+MPTP group were intragastrically administrated with normal saline, and mice in the other two groups were administrated with compound PL201 once a day for 7 consecutive days. From Day 7, mice in the NS and the PL201 group were intraperitoneally injected with 5 ml/kg normal saline, while mice in the NS+MPTP and the PL201+MPTP group were intraperitoneally injected with 25 mg/kg of MPTP once a day for a total of 5 days. […]

**Q.** With `COc1cc(/C=C/C(=O)OC2OC(C)C(O)C(O)C2O)ccc1O` [PL201, (α-L-rhamnopyranosyl) ferulic acid ester] as the compound, how does the “learning and memory abilities (escape latency)” value [1] read?
**A.** Its value is “significantly improved”.

**Q.** What about the “BrdU/NeuN double-positive newborn neurons in hippocampus” value (AD mice [2]) of the same compound?
**A.** The value was “more BrdU/NeuN double-positive newborn neurons”.

**Q.** What about the “Aβ plaques in brain” value (AD mice [3]) of the same compound?
**A.** Its value is “less Aβ plaques”.

**Q.** And the mitochondrial membrane potential (Human neural stem cells)?
**A.** Its mitochondrial membrane potential is “mitigated the deleterious effect of Aβ to a lesser extent”.

**Q.** And the “level of striatal dopaminergic nerve fibers (TH immunohistochemistry, mean optical density)” value (MPTP mice model)?
**A.** The value was “significantly increased”.

**Q.** What about the “number of dopaminergic neurons in substantia nigra (TH positive cells)” value (MPTP mice model) of the same compound?
**A.** Its value is “significantly increased”.
